Test results: patent publication US11028066B2, “Inhibitors of lysine specific demethylase-1” (CELGENE QUANTICEL RESEARCH, INC., priority 2014, dated 2021)

Tests used:
[1] = target: full-length human LSD1 (Homo sapiens (Human), UniProt O60341); assay: In vitro enzyme inhibition assay LSD-1 (TR-FRET); type: biochemical; conditions: H3K4me1-biotin peptide
Experimental: This assay determines the ability of a test compound to inhibit LSD1 demethylase activity.
The enzymatic assay of LSD1 activity is based on Time Resolved-Fluorescence Resonance Energy Transfer (TR-FRET) detection.
Plates were read by EnVision Multilabel Reader in TR-FRET mode (excitation at 320 nm, emission at 615 nm and 665 nm) after 1 hour incubation at room temperature.
The ability of the compounds disclosed herein to inhibit LSD1 activity was quantified and the respective IC50 value was determined.

[2] = system: THP-1 (AML) cells; assay: LSD1 CD11b cellular assay (flow cytometry); type: cell-based; conditions: Homo sapiens, THP-1, 96 h; CD11b expressing cells, 4 days incubation
Experimental: To analyze LSD1 inhibitor efficacy in cells, a CD11b flow cytometry assay was performed. LSD1 inhibition induces CD11b expression in THP-1 (AML) cells which can be measured by flow cytometry. […] LSD1 test compounds were serially diluted in DMSO. The dilutions were added to each well accordingly to a final concentration of 0.2% DMSO. The cells were incubated at 37 degrees Celsius in 5% CO2 for 4 days. 250 μL of each well was transferred to a well in a 96 well round bottom plate. The plate was centrifuged at 1200 rpm at 4 degrees Celsius in a Beckman Coulter Alegra 6KR centrifuge for 5 minutes. The media was removed leaving the cells at the bottom of the wells. The cells were washed in 100 μL cold HBSS (Hank's Balanced Salt Solution) plus 2% BSA (Bovine Serum Albumin) solution and centrifuged at 1200 rpm at 4 degrees Celsius for 5 minutes. The wash was removed. […] The cells were centrifuged and washed two times in 100 μL HBSS plus 2% BSA. After the final spin the cells were resuspended in 100 μL HBSS plus 2% BSA containing 1 ug/mL DAPI (4′,6-diamidino-2-phenylindole). The cells were then analyzed by flow cytometry in a BD FACSAria machine. Cells were analyzed for CD11b expression. The percent of CD11b expressing cells for each inhibitor concentration was used to determine an IC50 curve for each compound analyzed.

IC50 [1] [nM]	IC50 [2] [nM]	Structure (SMILES)
< 100	< 100	CCc1ccc(-c2c(-c3ccc(C#N)nc3)cc(NC[C@H]3CCNC3)c(=O)n2C)cc1 [Example 71, (S)-5-(2-(4-ethylphenyl)-1-methyl-6-oxo-5-(pyrrolidin-3-ylmethylamino)-1,6-dihydropyridin-3-yl)picolinonitrile]
< 100	< 100	COc1ccc(-c2c(-c3ccc(C#N)c(F)c3)nc(N3CCC(N)CC3)c(=O)n2CC(N)=O)cc1 [Example 88, 2-[3-(4-aminopiperidyl)-5-(4-cyano-3-fluorophenyl)-6-(4-methoxyphenyl)-2-oxohydropyrazinyl]acetamide]
< 100	< 100	CCc1ccc(-c2c(-c3ccc(C#N)nc3)nc(NC[C@H]3CCNC3)c(=O)n2C)cc1 [Example 56, 5-{3-(4-ethyl-phenyl)-4-methyl-5-oxo-6-[((3S)-pyrrolidin-3-ylmethyl)-amino]-4,5-dihydro-pyrazin-2-yl}-pyridine-2-carbonitrile]
< 100	< 100	Cc1ccc(-c2c(-c3ccc(C#N)cc3)nc(N3CCC(N)CC3)c(=O)n2C)cn1 [Example 49, 4-[6-(4-amino-piperidin-1-yl)-4-methyl-3-(6-methyl-pyridin-3-yl)-5-oxo-4,5-dihydro-pyrazin-2-yl]-benzonitrile]
< 100	100 to 1000	COc1ccc(-c2c(-c3ccc(C#N)cc3)nc(NC[C@@H]3CCNC3)c(=O)n2C)cc1 [Example 32, 4-[3-(4-methoxyphenyl)-4-methyl-5-oxo-6-{[(3R)-pyrrolidin-3-ylmethyl]amino}-4,5-dihydropyrazin-2-yl]benzonitrile]
< 100	100 to 1000	Cn1c(-c2ccc(C3CC3)cc2)c(-c2ccc(C#N)nc2)nc(NC[C@H]2CCNC2)c1=O [Example 58, 5-{3-(4-cyclopropyl-phenyl)-4-methyl-5-oxo-6-[((3S)-pyrrolidin-3-ylmethyl)-amino]-4,5-dihydro-pyrazin-2-yl}-pyridine-2-carbonitrile]
< 100	100 to 1000	Cc1ccc(-c2c(-c3ccc(C#N)cc3)nc(N3CCC(C)(N)CC3)c(=O)n2C)cc1 [Example 21, 4-[6-(4-amino-4-methylpiperidin-1-yl)-4-methyl-3-(4-methylphenyl)-5-oxo-4,5-dihydropyrazin-2-yl]benzonitrile]
< 100	< 100	CCc1ccc(-c2c(-c3ccc(C#N)c(F)c3)cc(NC[C@H]3CCNC3)c(=O)n2C)cc1 [Example 72, (S)-4-(2-(4-ethylphenyl)-1-methyl-6-oxo-5-(pyrrolidin-3-ylmethylamino)-1,6-dihydropyridin-3-yl)-2-fluorobenzonitrile]
< 100	< 100	Cn1c(-c2ccc(OCC3CC3)cc2)c(-c2ccc(C#N)c(F)c2)nc(NC[C@H]2CCNC2)c1=O [Example 61, 4-{3-(4-cyclopropylmethoxy-phenyl)-4-methyl-5-oxo-6-[((3S)-pyrrolidin-3-ylmethyl)-amino]-4,5-dihydro-pyrazin-2-yl}-2-fluoro-benzonitrile]
< 100	< 100	COCCCn1c(-c2ccc(C)cc2)c(-c2ccc(C#N)cc2)nc(N2CCC(N)CC2)c1=O [Example 39, 4-[6-(4-amino-piperidin-1-yl)-4-(3-methoxy-propyl)-5-oxo-3-p-tolyl-4,5-dihydro-pyrazin-2-yl]-benzonitrile]
< 100	< 100	Cc1ccc(-c2c(-c3ccc(C#N)cc3)nc(N3CCC4CNCC4C3)c(=O)n2C)cc1 (stereo not shown) [Example 23, 4-[4-methyl-3-(4-methylphenyl)-6-{octahydro-1H-pyrrolo[3,4-c]pyridin-5-yl}-5-oxo-4,5-dihydropyrazin-2-yl]benzonitrile]
< 100	< 100	CNC1CCN(c2nc(-c3ccc(C#N)c(F)c3)c(-c3ccc(C)cc3)n(CCCO)c2=O)CC1 [Example 64, 2-Fluoro-4-[4-(3-hydroxy-propyl)-6-(4-methylamino-piperidin-1-yl)-5-oxo-3-p-tolyl-4,5-dihydro-pyrazin-2-yl]-benzonitrile]
< 100	< 100	Cn1c(-c2ccc(OC(F)(F)F)cc2)c(-c2ccc(C#N)c(F)c2)nc(NC[C@H]2CCNC2)c1=O [Example 63, 2-fluoro-4-[4-methyl-5-oxo-6-[((3S)-pyrrolidin-3-ylmethyl)-amino]-3-(4-trifluoromethoxy-phenyl)-4,5-dihydro-pyrazin-2-yl]-benzonitrile]
< 100	< 100	Cc1ccc(-c2c(-c3ccc(C#N)cc3)nc(NC[C@H]3CCNC3)c(=O)n2C)cc1 [Example 17, 4-[4-methyl-3-(4-methylphenyl)-5-oxo-6-{[(3S)-pyrrolidin-3-ylmethyl]amino}-4,5-dihydropyrazin-2-yl]benzonitrile]
< 100	100 to 1000	COc1ccc(-c2c(-c3ccc(C#N)nc3)cc(NC[C@H]3CCNC3)c(=O)n2C)cc1 [Example 69, (S)-5-(2-(4-methoxyphenyl)-1-methyl-6-oxo-5-(pyrrolidin-3-ylmethylamino)-1,6-dihydropyridin-3-yl)picolinonitrile]
< 100	100 to 1000	N#Cc1ccc(-c2cn(CC3CCOCC3)c(=O)c(N3CCC(N)CC3)n2)cc1F [Example 15, 4-[6-(4-amino-piperidin-1-yl)-5-oxo-4-(tetrahydro-pyran-4-ylmethyl)-4,5-dihydro-pyrazin-2-yl]-2-fluoro-benzonitrile]
< 100	< 100	COc1ccc(-c2c(-c3ccc(C#N)cc3)nc(N3CCC(N)CC3)c(=O)n2C)cc1 [Example 30, 4-[6-(4-aminopiperidin-1-yl)-3-(4-methoxyphenyl)-4-methyl-5-oxo-4,5-dihydropyrazin-2-yl]benzonitrile]
< 100	< 100	Cc1ccc(-c2c(-c3ccc(C#N)cc3)nc(NC[C@@H]3CCNC3)c(=O)n2C)cc1 [Example 18, 4-[4-methyl-3-(4-methylphenyl)-5-oxo-6-{[(3R)-pyrrolidin-3-ylmethyl]amino}-4,5-dihydropyrazin-2-yl]benzonitrile]
< 100	1000 to 10000	N#Cc1ccc(-c2cn(Cc3cccc(Cl)c3)c(=O)c(N3CCC(N)CC3)n2)cc1 [Example 4, 4-[6-(4-aminopiperidin-1-yl)-4-(3-chloro-benzyl)-5-oxo-4,5-dihydro-pyrazin-2-yl]-benzonitrile]
< 100	< 100	CNC1CCN(c2cc(-c3ccc(C#N)cc3)c(-c3ccc(C)cc3)n(C)c2=O)CC1 [Example 80, 4-{1-methyl-5-[4-(methylamino)piperidyl]-2-(4-methylphenyl)-6-oxo-3-hydropyridyl}benzenecarbonitrile]
< 100	< 100	COc1ccc(-c2c(-c3ccc(C#N)nc3)nc(N3CCC(N)CC3)c(=O)n2C)cc1 [Example 51, 5-[6-(4-amino-piperidin-1-yl)-3-(4-methoxy-phenyl)-4-methyl-5-oxo-4,5-dihydro-pyrazin-2-yl]-pyridine-2-carbonitrile]
–	< 100	CCn1c(-c2ccc(OC)cc2)c(-c2ccc(C#N)c(F)c2)cc(N2CCC(N)CC2)c1=O [Example 87, 4-[5-(4-aminopiperidin-1-yl)-1-ethyl-2-(4-methoxyphenyl)-6-oxopyridin-3-yl]-2-fluorobenzonitrile]
